Source: EP3212211B1, “MILK PROTEIN HYDROLYSATE FOR USE IN THE TREATMENT OF DIARRHOEA” (Laboratorios Ordesa, S.l., priority 2014, dated 2016)
Where “and” joins values, the source holds several entries; their conditions need not be identical. Equal entries are not always repeated. Blank lines part the entries; values can stand above or below the molecule they belong to. No end group written: not given here.

How the values were obtained:
[1] = system: rats; assay: intestine motility test (activated charcoal transit); type: in vivo; details: for intestinal transit in relation to RS group: product 30 minutes before charcoal, H1, H2 8.5 g/Kg, P+ (LW) 0.8 g/Kg, L 6.5 g/Kg, loperamide 2 mg/Kg p.o., read 20 minutes after charcoal
Method: Intestine motility was evaluated in rats as in Example 7. The groups were coincident (n=7) except of the omission of R group and that only P^+ (LW 0.8 g/Kg) was tested. The control group included rats treated with loperamide (Lop) at a dose of 2 mg/Kg, and rats treated with the vehicle (water) and with non-hydrolysed cow milk (L group). Loperamide is an anti-diarrhoeic drug that delays intestinal transit and it acts as a positive control in this experiment.
After 30 minutes of the administration of the products under study (P+, L, Lop, H1, H2, water) intestine transit was determined by administering 1 ml of a suspension at 1 % w/v of activated charcoal (Sigma-Aldrich®) in arabic gum (Acofar®, 5 %).
20 minutes later, animals were sacrificed by exsanguination and small intestine was extracted (from pilor to ileocecal). Small intestine was longitudinally disposed over a clean surface. Intestinal distance of charcoal was measured as well as the total intestine length. Results for each animal were expressed as distance of charcoal in relation to intestine length, in percentage form.
Statistical analysis was performed by PASW®Statistics 18 software. Global comparative analysis between groups was performed with Kruskal-Wallis test and further with the non-parametric U test of Mann-Whitney. It was stablished as meaningful level a p value of p<0.05.

[2] = biological target: T1, recombinant human neprilysin (rhNeprilysin) (Homo sapiens, UniProt P08473); assay: neprilysin inhibition, fluorogenic enzymatic (FRET) assay; type: biochemical; details: for IC50: pure substance, 37 °C
T1 construct: purchased R&D Systems, Inc
T1 sequence (P08473 whole entry): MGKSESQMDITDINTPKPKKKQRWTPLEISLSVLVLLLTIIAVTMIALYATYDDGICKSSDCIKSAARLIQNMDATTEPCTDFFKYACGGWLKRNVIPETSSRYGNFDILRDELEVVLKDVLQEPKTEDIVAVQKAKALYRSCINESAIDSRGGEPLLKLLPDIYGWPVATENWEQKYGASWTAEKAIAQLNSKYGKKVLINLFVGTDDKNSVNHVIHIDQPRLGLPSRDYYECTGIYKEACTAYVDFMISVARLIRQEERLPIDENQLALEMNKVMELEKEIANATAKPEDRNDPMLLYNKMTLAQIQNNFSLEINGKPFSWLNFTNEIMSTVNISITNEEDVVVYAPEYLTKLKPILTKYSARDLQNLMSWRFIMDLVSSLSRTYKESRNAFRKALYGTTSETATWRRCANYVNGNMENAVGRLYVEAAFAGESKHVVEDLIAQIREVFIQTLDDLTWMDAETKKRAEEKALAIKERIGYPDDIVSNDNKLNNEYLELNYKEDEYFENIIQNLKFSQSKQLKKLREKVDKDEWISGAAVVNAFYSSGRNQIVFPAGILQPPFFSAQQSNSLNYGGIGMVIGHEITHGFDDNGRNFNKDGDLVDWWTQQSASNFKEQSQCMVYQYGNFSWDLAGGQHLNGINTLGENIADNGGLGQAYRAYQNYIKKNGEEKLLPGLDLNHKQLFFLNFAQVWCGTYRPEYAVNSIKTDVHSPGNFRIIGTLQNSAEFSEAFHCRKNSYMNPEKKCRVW
Method: All samples are assayed in triplicate.

[3] = system: female Wistar rats; assay: castor oil induced acute diarrhoea in rats; type: in vivo; details: p.o. 1 h before castor oil, H1, H2 8.5 g/Kg
Method: The effect of the hydrolysates of the invention was tested in a model of induced acute diarrhoea. For this test, female Wistar rats were used (8 weeks old). Animals were provided with 7 weeks by Harlan (Barcelona, Spain) and they rested in the Animal Experimental Service of Facultad de […] de Barcelona (UB) under controlled temperature and humidity conditions with a light:dark cycle of 12 h:12 h with water and food ad libitum. The assay has been conducted under institutional guidelines for animal experimentation established by the Ethical Commitment of Animal Experimentation in the Universidad de Barcelona (CEEA-UB). […] Haematocrit was also determined as basal value before inducing diarrhoea. […] Although the weight was reduced during the assay, the loss was detected in all groups, and it is hypothesized due to the starving period. No differences among groups were detected in the haematocrit. […] The following variables were determined: number of defecations, type (consistency, colour, form, presence or absence of mucus), punctuation (0-4 according to a diarrhoea index), presence or absence of diarrhoea. There were also determined the diarrhoea index (ID), diarrhoea incidence, the percentage of diarrhoeic defecations, as well as the severity of diarrhoeic process. […] The percentage of diarrhoeic defecations (ID≥2) was also determined for each group. […]

[4] = cited from earlier work
[5] = biological target: Angiotensin Converting Enzymes (ACE); details: ACE inhibition; cited from earlier work
[6] = biological target: recombinant human neprilysin (human, UniProt P08473 53-750); assay: cell-based or functional assay
Chain of recombinant human neprilysin (P08473 53-750 limits assumed): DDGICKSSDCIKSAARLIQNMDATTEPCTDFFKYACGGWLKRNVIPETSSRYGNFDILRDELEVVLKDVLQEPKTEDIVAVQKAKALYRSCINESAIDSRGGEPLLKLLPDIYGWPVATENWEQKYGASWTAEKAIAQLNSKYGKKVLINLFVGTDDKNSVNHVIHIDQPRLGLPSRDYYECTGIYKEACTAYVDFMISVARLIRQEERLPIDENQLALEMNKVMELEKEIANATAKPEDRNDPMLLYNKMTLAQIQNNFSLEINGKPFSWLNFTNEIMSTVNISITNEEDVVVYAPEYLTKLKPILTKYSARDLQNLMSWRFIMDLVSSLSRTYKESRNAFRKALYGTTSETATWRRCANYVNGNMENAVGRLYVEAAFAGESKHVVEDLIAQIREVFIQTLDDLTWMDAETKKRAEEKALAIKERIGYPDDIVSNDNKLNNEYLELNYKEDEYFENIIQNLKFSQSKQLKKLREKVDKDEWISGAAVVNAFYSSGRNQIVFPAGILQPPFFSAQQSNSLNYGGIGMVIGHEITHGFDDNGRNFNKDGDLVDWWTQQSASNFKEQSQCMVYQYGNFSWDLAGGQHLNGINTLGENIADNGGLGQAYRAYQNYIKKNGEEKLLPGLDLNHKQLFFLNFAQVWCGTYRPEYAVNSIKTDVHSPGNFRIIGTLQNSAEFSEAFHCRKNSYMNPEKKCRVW

intestinal transit in relation to RS group [1]: does not modify intestinal transit
IC50 [2]: 84.8 µM
IC50 ([2]; dilutions in deionized water): 84.8 µM
Molecule: CC(C)C[C@H](N)C(=O)N[C@@H](Cc1c[nH]c2ccccc12)C(=O)O [LW]

Molecule: CN(C)C(=O)C(CCN1CCC(O)(c2ccc(Cl)cc2)CC1)(c1ccccc1)c1ccccc1 [loperamide]
intestinal transit: distance of charcoal in relation to total small intestine length (D/L) ([1]; 2 mg/Kg p.o., 30 minutes before charcoal, p<0.01 vs RS): 37.8 ± 3.49%
inhibition of intestinal transit ([1]; 2 mg/Kg p.o., versus RS group, p<0.01): 37%
intestinal transit in relation to RS group [1]: delayed intestinal transit

Molecule: CC(=O)SCC(Cc1ccccc1)C(=O)NCC(=O)OCc1ccccc1 (centres unmarked) [racecadotril]
severity of diarrhoeic process (AUC of the diarrhoea index) ([3]; LW 0.8 g/Kg, racecadotril 40 mg/Kg, L 6.5 g/Kg, 0-3 h and 0-8 h PI (FIG. 8), versus RD group): milder severity of diarrhoeic process than RD group
percentage of diarrhoeic defecations (ID≥2) in relation to the total of defecations ([3]; R 40 mg/Kg, 0-3 h and 0-8 h PI (FIG. 9)): lower in both studied period
water solubility [4]: poor water solubility

Molecule: IPP
IC50 [5]: 5 to 9 µM

inhibition at 1260 µM ([2]; peptide concentration 1.26 x10^-3 M, 40 minutes at 37 °C): 64.8%
inhibition at 126 µM ([2]; peptide concentration 1.26 x10^-4 M, 40 minutes at 37 °C): 13.2%
inhibition at 12.6 µM ([2]; peptide concentration 1.26 x10^-5 M, 40 minutes at 37 °C): 1.49%
inhibition at 315 µM ([2]; peptide concentration 3.15 x10^-4 M, 40 minutes at 37 °C): 29.5%
inhibition at 630 µM ([2]; peptide concentration 6.30 x10^-4 M, 40 minutes at 37 °C): 46.6%
inhibition at 63 µM ([2]; peptide concentration 6.30 x10^-5 M, 40 minutes at 37 °C): 7.37%
inhibition at 90 µM ([2]; peptide concentration 9.00 x10^-5 M, 40 minutes at 37 °C): 9.41%
Molecule: VLGPVRGPFP [SEQ ID NO: 1]

Molecule: VPP
IC50 [5]: 5 to 9 µM

IC50 of neprilysin inhibition (fluorogenic enzymatic assay, FRET substrate Mca-…[Dnp]-OH) [6]: 0.0269 mg/ml and 84.8 µM
Molecule: LW [peptide LW (dipeptide of formula (I) X1W, wherein X1 is leucine)]

IC50 of neprilysin inhibition (fluorogenic enzymatic assay) [6]: 713 µM
Molecule: VLGPVRGPFP [peptide of SEQ ID NO: 1 (VLGPVRGPFP)]
